Results from US20080221330A1, “Mutilin-Derivative Substituted at Position 12” (priority 2004, published 2008).
Where a name gives a salt, the structure may show the parent alone.

What was measured:
S. aureus 209P = assay: Minimum inhibitory concentration (MIC) by NCCLS agar dilution technique; type: cell-based
Method: (§1) The minimum inhibitory concentration (MIC) was determined for each compound by NCCLS agar dilution technique (Methods for dilution antimicrobial susceptibility tests for bacteria that grow aerobically; approved standard-sixth edition. […] The results are shown in Table below and indicate that the compounds of the present invention have high antimicrobial activity.

S. pneumoniae IID 553 = assay: as above; type: cell-based
Method: as §1

SMILES	minimum inhibitory concentration (MIC), in vitro antimicrobial activity (S. aureus 209P)	minimum inhibitory concentration (MIC), in vitro antimicrobial activity (S. pneumoniae IID 553)
CC1C(O)C(C)(C)CC(OC(=O)NC(=O)C2CN3CCC2C3)C2(C)C(C)CCC13CCC(=O)C32.Cl [Example 2, 14-{(3R,4S)-1-azabicyclo[2.2.1]heptane-3-carbonyl}carbamoyl-12-desethenyl-12-methylmutilin hydrochloride]	0.125	1
C=CCC1(C)CC(OC(=O)NC(=O)C2CN3CCC2C3)C2(C)C(C)CCC3(CCC(=O)C32)C(C)C1O.Cl [Example 4, 14-{(3R,4S)-1-azabicyclo[2.2.1]heptane-3-carbonyl}carbamoyl-12-desethenyl-12-(1-propene-3-yl)mutilin hydrochloride]	0.125	0.5
CCC[C@]1(C)C[C@@H](OC(=O)NC(=O)[C@H]2CN3CC[C@@H]2C3)[C@@]2(C)C3C(=O)CCC3(CC[C@H]2C)[C@@H](C)[C@@H]1O (stereo partly drawn) [Example 17, 14-{(3R,4S)-1-azabicyclo[2.2.1]heptane-3-carbonyl}carbamoyl-12-desethenyl-12-propylmutilin hydrochloride]	0.125	2
CCCC[C@]1(C)C[C@@H](OC(=O)NC(=O)[C@H]2CN3CC[C@@H]2C3)[C@@]2(C)C3C(=O)CCC3(CC[C@H]2C)[C@@H](C)[C@@H]1O (stereo partly drawn) [Example 18, 12-butyl-14-{(3R,4S)-1-azabicyclo[2.2.1]heptane-3-carbonyl}car bamoyl-12-desethenylmutilin]	0.125	2
C/C=C/C[C@]1(C)C[C@@H](OC(=O)NC(=O)[C@H]2CN3CC[C@@H]2C3)[C@@]2(C)C3C(=O)CCC3(CC[C@H]2C)[C@@H](C)[C@@H]1O (stereo partly drawn) [Example 20, 14-{(3R,4S)-1-azabicyclo[2.2.1]heptane-3-carbonyl}carbamoyl-12-[(E)-2-butene-4-yl]-12-desethenylmutilin]	0.06	0.5
C=C[C@]1(C)C[C@@H](OC(=O)CSCCN(CC)CC)[C@]2(C)[C@H](C)CC[C@]3(CCC(=O)[C@H]32)[C@@H](C)[C@@H]1O [tiamulin, reference compound]	0.06-0.125	1-2
